This note sets out measurements from patent US20060189602A1, “Pyridazinone compounds” (Anadys Pharmaceuticals, Inc., priority 2004, published 2006).

The target of this experiment is HCV NS5B polymerase (Hepatitis C virus genotype 1b, UniProt P26663). The experiment is described as follows: NS5B Polymerase Inhibition Assay. It is filed as biochemical. The settings on record: 50 nM enzyme, [α-33P]GTP, oligo (rG13)/poly rC, 75 min at 28° C. As to the method:
NS5B Polymerase Inhibition Assay
Compounds were tested for HCV polymerase inhibition. Assays were performed in a 96-well streptavidin-coated FlashPlate using 50 nM enzyme, 0.5 μCi of [α-^33P]GTP, 0.63 μM GTP, and 250 nM 5′biotinylated oligo (rG13)/poly rC in 20 mM Tris-HCl, pH 7.5, 5 mM MgCl2, 20 mM NaCl, 5 mM dithiothreitol, and 0.1 g/L BSA. The reaction was stopped by aspiration after 75 min at 28° C. and the plate was washed several times. After washing, incorporated radioactivity was counted using a Microbeta scintillation counter.

HCV NS5B polymerase, sequence (P26663 2420-3010): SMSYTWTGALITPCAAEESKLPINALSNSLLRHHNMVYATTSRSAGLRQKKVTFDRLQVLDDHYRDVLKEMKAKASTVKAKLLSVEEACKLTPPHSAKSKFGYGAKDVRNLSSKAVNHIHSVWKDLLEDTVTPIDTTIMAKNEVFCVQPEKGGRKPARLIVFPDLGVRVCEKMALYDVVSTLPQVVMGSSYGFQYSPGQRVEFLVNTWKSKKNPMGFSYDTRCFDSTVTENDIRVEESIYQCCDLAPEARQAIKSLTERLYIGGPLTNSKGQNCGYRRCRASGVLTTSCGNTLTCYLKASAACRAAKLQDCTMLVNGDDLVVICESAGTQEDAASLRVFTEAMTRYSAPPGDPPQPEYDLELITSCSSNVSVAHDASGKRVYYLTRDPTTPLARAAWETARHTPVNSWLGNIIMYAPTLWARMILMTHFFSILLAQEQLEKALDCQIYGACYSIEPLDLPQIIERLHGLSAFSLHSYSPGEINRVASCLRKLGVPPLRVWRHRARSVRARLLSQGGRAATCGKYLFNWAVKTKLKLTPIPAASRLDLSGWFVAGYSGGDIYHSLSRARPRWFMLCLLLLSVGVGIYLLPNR

For the molecule `COc1ccc2c(c1)S(=O)(=O)NC(c1c(O)c(-c3cccs3)nn(CCC3CC3)c1=O)=N2` [Compound 3, 2-(2-Cyclopropyl-ethyl)-5-hydroxy-4-(7-methoxy-1,1-dioxo-1,2-di-hydro-1λ^6-benzo[1,2,4]thiadiazin-3-yl)-6-thiophen-2-yl-2H-py-ridazin-3-one], the half-maximal inhibitory concentration (IC50) – broadly, the concentration needed to halve the response being measured – is less than 10 µM.

`COc1ccc2c(c1)S(=O)(=O)NC(c1c(O)c(-c3cccs3)nn(Cc3ccccc3)c1=O)=N2` [Compound 5, 2-Benzyl-5-hydroxy-4-(7-methoxy-1,1-dioxo-1,2-dihydro-1λ^6-ben-zo[1,2,4]thiadiazin-3-yl)-6-thiophen-2-yl-2H-py-ridazin-3-one]: the concentration for half-maximal inhibition (IC50) lay in the range of 10 to 50 µM. As to `O=c1c(C2=Nc3ccc(O)cc3S(=O)(=O)N2)c(O)c(-c2cccs2)nn1Cc1ccccc1` [Compound 6, 2-Benzyl-5-hydroxy-4-(7-hydroxy-1,1-dioxo-1,2-dihydro-1λ^6-ben-zo[1,2,4]thiadiazin-3-yl)-6-thiophen-2-yl-2H-pyridazin-3-one], the IC50 is less than 10 µM. Next, `O=c1c(C2=Nc3ccc(O)cc3S(=O)(=O)N2)c(O)c(-c2cccs2)nn1CCC1CC1` [Compound 7, 2-(2-Cyclopropyl-ethyl)-5-hydroxy-4-(7-hydroxy-1,1-dioxo-1,2-di-hydro-1λ^6-benzo[1,2,4]thiadiazin-3-yl)-6-thiophen-2-yl-2H-py-ridazin-3-one]: less than 10 µM. `COc1ccc2c(c1)S(=O)(=O)NC(c1c(O)c(-c3ccc(C)s3)nn(CCC(C)C)c1=O)=N2` [Compound 9, 5-Hydroxy-4-(7-methoxy-1,1-dioxo-1,2-dihydro-1λ^6-ben-zo[1,2,4]thiadiazin-3-yl)-2-(3-methyl-butyl)-6-(5-methyl-thio-phen-2-yl)-2H-pyridazin-3-one] registered a half-maximal inhibitory concentration (IC50) of 10 to 50 µM. The figure for `CCCCn1nc(C(C)C)c(O)c(C2=Nc3ccc(OC)cc3S(=O)(=O)N2)c1=O` [Compound 10, 2-Butyl-5-hydroxy-6-isopropyl-4-(7-methoxy-1,1-dioxo-1,2-di-hydro-1λ^6-benzo[1,2,4]thiadiazin-3-yl)-2H-pyridazin-3-one] is 10 to 50 µM; for `CCCCn1nc(C(C)C)c(O)c(C2=Nc3ccc(O)cc3S(=O)(=O)N2)c1=O` [Compound 11, 2-Butyl-5-hydroxy-4-(7-hydroxy-1,1-dioxo-1,2-dihydro-1λ^6-ben-zo[1,2,4]thiadiazin-3-yl)-6-isopropyl-2H-pyridazin-3-one] it is less than 10 µM; for `CCCCn1nc(C(C)C)c(O)c(C2=Nc3ccc(OCC(N)=O)cc3S(=O)(=O)N2)c1=O` [Compound 12, 2-[3-(2-Butyl-5-hydroxy-6-isopropyl-3-oxo-2,3-dihydro-py-ridazin-4-yl)-1,1-dioxo-1,2-dihdyro-1λ^6-ben-zo[1,2,4]thiadiazin-7-yloxy]-actamide] it is less than 10 µM.

Molecule `CCCCn1nc(C(C)(C)CO)c(O)c(C2=Nc3ccc(OC)cc3S(=O)(=O)N2)c1=O` [Compound 14, 2-Butyl-5-hydroxy-6-(2-hydroxy-1,1-dimethyl-ethyl)-4-(7-meth-oxy-1,1-dioxo-1,2-dihydro-1λ^6-benzo[1,2,4]thiadiazin-3-yl)-2H-py-ridazin-3-one] returned an IC50 of 10 to 50 µM. Molecule `CCCCn1nc(-c2ccccc2)c(O)c(C2=Nc3ccc(OC)cc3S(=O)(=O)N2)c1=O` [Compound 15, 2-Butyl-5-hydroxy-4-(7-methoxy-1,1-dioxo-1,2-dihydro-1λ^6-ben-zo[1,2,4]thiadiazin-3-yl)-6-phenyl-2H-pyridazin-3-one] had a concentration for half-maximal inhibition (IC50) of 10 to 50 µM. Next, `CCCCn1nc(-c2cccs2)c(O)c(C2=Nc3ccc(OC)cc3S(=O)(=O)N2)c1=O` [Compound 17, 2-Butyl-5-hydroxy-4-(7-methoxy-1,1-dioxo-1,2-dihydro-1λ^6-ben-zo[1,2,4]thiadiazin-3-yl)-6-thiophen-2-yl-2H-pyridazin-3-one]: less than 10 µM. Molecule `O=c1c(C2=Nc3ccc(O)cc3S(=O)(=O)N2)c(O)c(-c2cccs2)nn1Cc1c(F)cccc1Cl` [Compound 19, 2-(2-Chloro-6-fluoro-benzyl)-5-hydroxy-4-(7-hydroxy-1,1-di-oxo-1,2-dihydro-1λ^6-benzo[1,2,4]thiadiazin-3-yl)-6-thio-phen-2-yl-2H-pyridazin-3-one] came in with a 50% inhibitory concentration (IC50) of 10 to 50 µM. Next, `CC(C)CCn1nc(-c2cccs2)c(O)c(C2=Nc3ccc(OCC(=O)N4CCC(N)C4)cc3S(=O)(=O)N2)c1=O` (stereo not drawn) [Compound 21, 4-{7-[2-(3-Amino-pyrrolidin-1-yl)-2-oxo-ethoxy]-1,1-dioxo-1,2-di-hydro-1λ^6-benzo[1,2,4]thiadiazin-3-yl}-5-hydroxy-2-(3-methyl-butyl)-6-thiophen-2-yl-2H-pyridazin-3-one]: less than 10 µM; `COc1ccc2c(c1)S(=O)(=O)NC(c1c(O)c(C(C)C)nn(CCC(C)C)c1=O)=N2` [Compound 26, 5-Hydroxy-6-isopropyl-4-(7-methoxy-1,1-dioxo-1,2-dihydro-1λ^6-ben-zo[1,2,4]thiadiazin-3-yl)-2-(3-methyl-butyl)-2H-py-ridazin-3-one]: 10 to 50 µM. The figure for `CC(C)CCn1nc(C(C)C)c(O)c(C2=Nc3ccccc3S(=O)(=O)N2)c1=O` [Compound 27, 4-(1,1-Dioxo-1,2-dihydro-1λ^6-benzo[1,2,4]thiadiazin-3-yl)-5-hy-droxy-6-isopropyl-2-(3-methyl-butyl)-2H-pyridazin-3-one] is 10 to 50 µM; for `COc1ccc2c(c1)S(=O)(=O)NC(c1c(O)c(-c3cccn3C)nn(CCC(C)C)c1=O)=N2` [Compound 28, 5-Hydroxy-4-(7-methoxy-1,1-dioxo-1,2-dihydro-1λ^6-ben-zo[1,2,4]thiadiazin-3-yl)-2-(3-methyl-butyl)-6-(1-methyl-1H-pyr-rol-2-yl)-2H-pyridazin-3-one] it is 10 to 50 µM; for `CC(C)CCn1nc(C(C)C)c(O)c(C2=Nc3ccc(O)cc3S(=O)(=O)N2)c1=O` [Compound 29, 5-Hydroxy-4-(7-hydroxy-1,1-dioxo-1,2-dihydro-1λ^6-ben-zo[1,2,4]thiadiazin-3-yl)-6-isopropyl-2-(3-methyl-butyl)-2H-py-ridazin-3-one] it is 10 to 50 µM. Next, `CC(C)CCn1nc(-c2cccs2)c(O)c(C2=Nc3ccncc3S(=O)(=O)N2)c1=O` [Compound 30, 4-(1,1-Dioxo-1,2-dihydro-1λ^6-pyrido[4,3-e][1,2,4]thiadiazin-3-yl)-5-hy-droxy-2-(3-methyl-butyl)-6-thiophen-2-yl-2H-py-ridazin-3-one]: less than 10 µM; `COc1ccc2c(c1)S(=O)(=O)NC(c1c(O)c(-c3ccco3)nn(CCC(C)C)c1=O)=N2` [Compound 32, 6-Furan-2-yl-5-hydroxy-4-(7-methoxy-1,1-dioxo-1,2-dihydro-1λ^6-ben-zo[1,2,4]thiadiazin-3-yl)-2-(3-methyl-butyl)-2H-py-ridazin-3-one]: less than 10 µM; `CC(C)CCn1nc(C(C)C)c(O)c(C2=Nc3ccc(OCC(N)=O)cc3S(=O)(=O)N2)c1=O` [Compound 33, 2-{3-[5-Hydroxy-6-isopropyl-2-(3-methyl-butyl)-3-oxo-2,3-di-hydro-pyridazin-4-yl]-1,1-dioxo-1,2-dihydro-1λ^6-ben-zo[1,2,4]thiadiazin-7-yloxy}-acetamide]: less than 10 µM. Regarding `CCCCn1nc(CCC(C)C)c(O)c(C2=Nc3ccc(OC)cc3S(=O)(=O)N2)c1=O` [Compound 34, 2-Butyl-5-hydroxy-4-(7-methoxy-1,1-dioxo-1,2-dihydro-1λ^6-ben-zo[1,2,4]thiadiazin-3-yl)-6-(3-methyl-butyl)-2H-pyridazin-3-one], the IC50 is less than 10 µM.
